# Data reported in US12509444B2, “Compounds and methods for CD73 modulation and indications therefor” (Plexxikon Inc., priority 2019, dated 2025).
# pIC50: −log10 of the molar value.
# Assays:
# human CD73 = target: T1, human CD73 (Homo sapiens, UniProt P21589); experiment: Inhibitor activity against CD73 in cell based assay (CD73 expressing CHO-K1 cells); settings: CHO-K1 cells expressing human CD73, 150 μM AMP, 4 hours of incubation; read-out: CHO-K1 CELL VARIANT: CD73 IC50
# T1 construct: expressed in transfected cells
# T1 sequence (P21589 27-549): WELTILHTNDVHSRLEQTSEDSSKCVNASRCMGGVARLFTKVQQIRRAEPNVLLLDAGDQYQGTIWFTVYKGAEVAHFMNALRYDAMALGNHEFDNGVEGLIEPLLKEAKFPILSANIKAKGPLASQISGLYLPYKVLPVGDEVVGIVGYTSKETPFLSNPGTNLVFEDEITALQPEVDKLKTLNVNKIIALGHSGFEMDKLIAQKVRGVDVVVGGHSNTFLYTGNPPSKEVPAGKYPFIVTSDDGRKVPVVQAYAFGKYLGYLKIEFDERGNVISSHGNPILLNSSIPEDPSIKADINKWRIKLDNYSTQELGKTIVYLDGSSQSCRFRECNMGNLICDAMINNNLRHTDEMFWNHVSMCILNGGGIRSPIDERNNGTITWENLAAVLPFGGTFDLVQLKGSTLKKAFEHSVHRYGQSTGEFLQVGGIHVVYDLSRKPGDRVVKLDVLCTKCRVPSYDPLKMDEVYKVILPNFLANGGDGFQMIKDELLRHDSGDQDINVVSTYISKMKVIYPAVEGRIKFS
# Summary of the method: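 Residual supernatant AMP was quantified via CellTiter-Glo luminescence (1 μM ATP added, 30 min, room temperature) after a 4 h exposure of human CD73-expressing CHO-K1 cells to 150 μM AMP plus compound, top final 10 μM, 8 points. IC50 came from nonlinear regression of percent inhibition.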
# [1] = target: T2, Human CD73 (amino acid residues 27-549) (Homo sapiens, UniProt P21589); experiment: CD73 enzymatic assay (luciferase-based indirect assay, CellTiter-Glo); assay type: biochemical; settings: 0.4 nM CD73, 150 μM AMP, 1 hour at room temperature
# T2 construct: Human CD73 (amino acid residues 27-549); His tag (N); made in house; host or cells: E. coli
# T2 sequence (P21589 27-549): T1 sequence (P21589 27-549)
# Summary of the method: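 Residual AMP inhibits luciferase, so luminescence reports CD73 turnover; read with CellTiter-Glo 2.0 plus 1 μM final ATP, 30 min. Reaction used 0.4 nM N-His CD73 (27-549, E. coli), 150 μM AMP, HEPES pH 7.4 with Tween 20, 1 h at room temperature. IC50 fitted by nonlinear regression.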
Compound,pIC50 (human CD73),pIC50 [1]
"O=C(NC1CCC(F)(F)CC1)O[C@@H]1CCN(c2cnn(CCCO)c(=O)c2Cl)C1 [P-0332, (R)-1-(5-chloro-1-(3-hydroxypropyl)-6-oxo-1,6-dihydropyridazin-4-yl)pyrrolidin-3-yl (4,4-difluorocyclohexyl)carbamate]",5.00 to 9.00,5.00 to 9.00
"O=C(NC1CCN(C(=O)CO)CC1(F)F)O[C@@H]1CCN(c2cn[nH]c(=O)c2Cl)C1 (stereo partly drawn) [P-0333, (R)-1-(5-chloro-6-oxo-1,6-dihydropyridazin-4-yl)pyrrolidin-3-yl (3,3-difluoro-1-(2-hydroxyacetyl)piperidin-4-yl)carbamate]",5.00 to 9.00,5.00 to 9.00
"CS(=O)(=O)N[C@H]1CC[C@H](NC(=O)O[C@@H]2CCN(c3cnn(CCO)c(=O)c3Cl)C2)CC1 [P-0334, (R)-1-(5-chloro-1-(2-hydroxyethyl)-6-oxo-1,6-dihydropyridazin-4-yl)pyrrolidin-3-yl ((1r,4R)-4-(methylsulfonamido)cyclohexyl)carbamate]",5.00 to 9.00,5.00 to 9.00
"C[C@@H]1CCCC[C@H]1NC(=O)O[C@@H]1CCN(c2cn[nH]c(=O)c2Cl)C1 [P-0335, (R)-1-(5-chloro-6-oxo-1,6-dihydropyridazin-4-yl)pyrrolidin-3-yl ((1R,2R)-2-methylcyclohexyl)carbamate]",5.00 to 9.00,5.00 to 9.00
"C[C@H]1C[C@@H](OC(=O)NC2CCC(F)(F)CC2)CN1c1cn[nH]c(=O)c1Cl [P-0336, (3R,5S)-1-(5-chloro-6-oxo-1,6-dihydropyridazin-4-yl)-5-methylpyrrolidin-3-yl (4,4-difluorocyclohexyl)carbamate]",4.00 to 5.00,5.00 to 9.00
"C[C@@H]1C[C@@H](OC(=O)NC2CCC(F)(F)CC2)CN1c1cn[nH]c(=O)c1Cl [P-0337, (3R,5R)-1-(5-chloro-6-oxo-1,6-dihydropyridazin-4-yl)-5-methylpyrrolidin-3-yl (4,4-difluorocyclohexyl)carbamate]",4.00 to 5.00,5.00 to 9.00
"O=C(NC1CC(CO)(CCl)C1)O[C@@H]1CCN(c2cn[nH]c(=O)c2Cl)C1 (stereo partly drawn) [P-0338, (R)-1-(5-chloro-6-oxo-1,6-dihydropyridazin-4-yl)pyrrolidin-3-yl (3-(chloromethyl)-3-(hydroxymethyl)cyclobutyl) carbamate]",5.00 to 9.00,5.00 to 9.00
"O=C(N[C@H]1CC[C@@H](F)CC1)O[C@@H]1CCN(c2cn[nH]c(=O)c2Cl)C1 [P-0339, (R)-1-(5-chloro-6-oxo-1,6-dihydropyridazin-4-yl)pyrrolidin-3-yl ((1s,4S)-4-fluorocyclohexyl)carbamate]",5.00 to 9.00,5.00 to 9.00
"CC(=O)N1CC[C@H](NC(=O)O[C@@H]2CCN(c3cn[nH]c(=O)c3Cl)C2)C1 [P-0340, (R)-1-(5-chloro-6-oxo-1,6-dihydropyridazin-4-yl)pyrrolidin-3-yl ((S)-1-acetylpyrrolidin-3-yl)carbamate]",5.00 to 9.00,5.00 to 9.00
"CS(=O)(=O)N1CC[C@H](NC(=O)O[C@@H]2CCN(c3cn[nH]c(=O)c3Cl)C2)C1 [P-0341, (R)-1-(5-chloro-6-oxo-1,6-dihydropyridazin-4-yl)pyrrolidin-3-yl ((S)-1-(methylsulfonyl)pyrrolidin-3-yl)carbamate]",4.00 to 5.00,5.00 to 9.00
"O=C(N[C@H]1CCN(C(=O)c2ccccc2)C1)O[C@@H]1CCN(c2cn[nH]c(=O)c2Cl)C1 [P-0342, (R)-1-(5-chloro-6-oxo-1,6-dihydropyridazin-4-yl)pyrrolidin-3-yl ((S)-1-benzoylpyrrolidin-3-yl)carbamate]",4.00 to 5.00,5.00 to 9.00
"O=C(N[C@H]1CCN(C(=O)NC2CCCCC2)C1)O[C@@H]1CCN(c2cn[nH]c(=O)c2Cl)C1 [P-0343, (R)-1-(5-chloro-6-oxo-1,6-dihydropyridazin-4-yl)pyrrolidin-3-yl ((S)-1-(cyclohexylcarbamoyl)pyrrolidin-3-yl)carbamate]",4.00 to 5.00,5.00 to 9.00
"Cc1ccc(C(=O)N[C@H]2CC[C@H](NC(=O)O[C@@H]3CCN(c4cn[nH]c(=O)c4Cl)C3)CC2)cc1 [P-0344, (R)-1-(5-chloro-6-oxo-1,6-dihydropyridazin-4-yl)pyrrolidin-3-yl ((1r,4R)-4-(4-methylbenzamido)cyclohexyl) carbamate]",5.00 to 9.00,5.00 to 9.00
"O=C(Nc1ccc(C(F)(F)F)cc1)N[C@H]1CC[C@H](NC(=O)O[C@@H]2CCN(c3cn[nH]c(=O)c3Cl)C2)CC1 [P-0345, (R)-1-(5-chloro-6-oxo-1,6-dihydropyridazin-4-yl)pyrrolidin-3-yl ((1r,4R)-4-(3-(4-(trifluoromethyl)phenyl)ureido)cyclohexyl)carbamate]",5.00 to 9.00,5.00 to 9.00
"O=C(Nc1cccc(C(=O)O)c1)N[C@H]1CC[C@H](NC(=O)O[C@@H]2CCN(c3cn[nH]c(=O)c3Cl)C2)CC1 [P-0346, 3-(3-((1R,4r)-4-(((((R)-1-(5-chloro-6-oxo-1,6-dihydropyridazin-4-yl)pyrrolidin-3-yl)oxy)carbonyl)amino)cyclohexyl)ureido)benzoic acid]",5.00 to 9.00,5.00 to 9.00
"O=C(Nc1ccc(C(=O)O)cc1)N[C@H]1CC[C@H](NC(=O)O[C@@H]2CCN(c3cn[nH]c(=O)c3Cl)C2)CC1 [P-0347, 4-(3-((1R,4r)-4-(((((R)-1-(5-chloro-6-oxo-1,6-dihydropyridazin-4-yl)pyrrolidin-3-yl)oxy)carbonyl)amino)cyclohexyl)ureido)benzoic acid]",5.00 to 9.00,5.00 to 9.00
"COc1c(N2CC[C@@H](OC(=O)NC3CCC(F)(F)CC3)C2)cn[nH]c1=O [P-0348, (R)-1-(5-methoxy-6-oxo-1,6-dihydropyridazin-4-yl)pyrrolidin-3-yl (4,4-difluorocyclohexyl)carbamate]",4.00 to 5.00,5.00 to 9.00
"O=C(NC12CCC(CC1)C2)O[C@@H]1CCN(c2cn[nH]c(=O)c2Cl)C1 [P-0349, (R)-1-(5-chloro-6-oxo-1,6-dihydropyridazin-4-yl)pyrrolidin-3-yl bicyclo[2.2.1]heptan-1-ylcarbamate]",5.00 to 9.00,5.00 to 9.00
"CC1(C)CCCC1NC(=O)O[C@@H]1CCN(c2cn[nH]c(=O)c2Cl)C1 (stereo partly drawn) [P-0350, (R)-1-(5-chloro-6-oxo-1,6-dihydropyridazin-4-yl)pyrrolidin-3-yl (2,2-dimethylcyclopentyl)carbamate]",5.00 to 9.00,5.00 to 9.00
"CC1(C)CC(NC(=O)O[C@@H]2CCN(c3cn[nH]c(=O)c3Cl)C2)C1 [P-0351, (R)-1-(5-chloro-6-oxo-1,6-dihydropyridazin-4-yl)pyrrolidin-3-yl (3,3-dimethylcyclobutyl)carbamate]",5.00 to 9.00,5.00 to 9.00
"O=C(N[C@H]1CC[C@@H](Nc2ncccn2)CC1)O[C@@H]1CCN(c2cn[nH]c(=O)c2Cl)C1 [P-0352, (R)-1-(5-chloro-6-oxo-1,6-dihydropyridazin-4-yl)pyrrolidin-3-yl ((1s,4s)-4-(pyrimidin-2-ylamino)cyclohexyl)carbamate]",5.00 to 9.00,5.00 to 9.00
"CC(=O)N1CC[C@@H](NC(=O)O[C@@H]2CCN(c3cn[nH]c(=O)c3Cl)C2)C1 [P-0353, (R)-1-(5-chloro-6-oxo-1,6-dihydropyridazin-4-yl)pyrrolidin-3-yl ((R)-1-acetylpyrrolidin-3-yl)carbamate]",5.00 to 9.00,5.00 to 9.00
"O=C(N[C@@H]1CCN(C(=O)NC2CCCCC2)C1)O[C@@H]1CCN(c2cn[nH]c(=O)c2Cl)C1 [P-0354, (R)-1-(5-chloro-6-oxo-1,6-dihydropyridazin-4-yl)pyrrolidin-3-yl ((R)-1-(cyclohexylcarbamoyl)pyrrolidin-3-yl)carbamate]",5.00 to 9.00,5.00 to 9.00
"CS(=O)(=O)N1CC[C@@H](NC(=O)O[C@@H]2CCN(c3cn[nH]c(=O)c3Cl)C2)C1 [P-0355, (R)-1-(5-chloro-6-oxo-1,6-dihydropyridazin-4-yl)pyrrolidin-3-yl ((R)-1-(methylsulfonyl)pyrrolidin-3-yl)carbamate]",5.00 to 9.00,5.00 to 9.00
"CC(C)(O)[C@H]1CC[C@H](NC(=O)O[C@@H]2CCN(c3cn[nH]c(=O)c3Cl)C2)CC1 [P-0356, (R)-1-(5-chloro-6-oxo-1,6-dihydropyridazin-4-yl)pyrrolidin-3-yl ((1r,4R)-4-(2-hydroxypropan-2-yl)cyclohexyl)carbamate]",5.00 to 9.00,5.00 to 9.00
"CC1(NC(=O)c2ccccc2)CCC(NC(=O)O[C@@H]2CCN(c3cn[nH]c(=O)c3Cl)C2)CC1 (stereo partly drawn) [P-0357, (R)-1-(5-chloro-6-oxo-1,6-dihydropyridazin-4-yl)pyrrolidin-3-yl (4-benzamido-4-methylcyclohexyl)carbamate]",5.00 to 9.00,5.00 to 9.00
